From patent US4265808A, “Pharmacologically active peptides” (Eli Lilly and Company, priority 1979, dated 1981)
Structures can show the parent of a compound that is named as a salt. Where a SMILES comes first, the peptide text is derived from it. [ ]: non-standard residue; d: D form. NEtPhe(4-F) = CCN[C@@H](Cc1ccc(F)cc1)C(=O)O

System: mouse
Assay: mouse hot plate test (analgesic activity)
Format: in vivo
Conditions: hot plate 52° C., 15 minutes after administration, latency to jump; for Analgesic Activity, Hot Plate Test ED50, mg./kg. subcutaneous: subcutaneous injection
Procedure: In this test, a mouse is placed inside an upright acrylic cylinder comprising, as its base, a hot plate surface which is maintained at 52° C. The mouse is given, orally or by subcutaneous injection, a predetermined amount of test compound dissolved or suspended in a suitable carrier, and, 15 minutes after administration of the test compound, the mouse is placed on the hot plate surface. The latency in seconds until the mouse jumps from the hot plate surface is measure. […] This must occur in a dose range which produces no motor incoordination or incapacitation. The following Table records the ED50 results obtained from this test.

Row | Structure (SMILES) | Analgesic Activity, Hot Plate Test ED50, mg./kg. oral | Analgesic Activity, Hot Plate Test ED50, mg./kg. subcutaneous
1 | CCN(C(=O)CNC(=O)[C@@H](C)NC(=O)[C@@H](N)Cc1ccc(O)cc1)[C@@H](Cc1ccc(F)cc1)C(N)=O [Example 1, L-Tyrosyl-D-alanyl-glycyl-L-(N-ethyl)-p-fluorophenylalanine Amide, Acetate Salt] | 19 mg/kg | 0.00018 mg/kg
2 | CCN(C(=O)CNC(=O)[C@H](NC(=O)[C@@H](N)Cc1ccc(O)cc1)[C@H](C)O)[C@@H](Cc1ccc(F)cc1)C(N)=O [Example 2, L-Tyrosyl-D-threonyl-glycyl-L-(N^α -ethyl)-p-fluorophenylalanine Amide, Acetate Salt] (H-Y[dT]G[NEtPhe(4-F)]-NH2) | – | 0.0121 mg/kg
3 | CCN(C(=O)CNC(=O)[C@@H](C)NC(=O)[C@H](Cc1ccc(O)cc1)NC)[C@@H](Cc1ccc(F)cc1)C(N)=O [Example 3, L-N^α -Methyl-tyrosyl-D-alanyl-glycyl-L-(N^α -Ethyl)-p-fluorophenylalanine Amide, Acetate Salt] | 3.55 mg/kg | 0.0117 mg/kg
